Assay results as given in PMC8244813 (Nutrition and cancer, 2019).
Like-named read-outs stand apart in the source and are kept apart here.

Legend:
[1] = SFN metabolites in plasma by LC-MS/MS; conditions: BSE group n=42; for Plasma level of individual SFN metabolite, postintervention, Mean (SE): after 200 μmol SFN daily, 4–8 wk; for Plasma level of individual SFN metabolite, preintervention, Mean (SE): baseline before supplementation
[2] = test system: AMACR expression in colon cancer Caco-2 cells; conditions: SFN treatment; cited from earlier work
[3] = test system: AMACR mRNA in LNCaP cells; conditions: 6 and 24 h after a single SFN treatment; cited from earlier work
[4] = in vivo

Row | SMILES | Plasma level of individual SFN metabolite, change (post minus pre), Mean (SE) [1] | Plasma level of individual SFN metabolite, postintervention, Mean (SE) [1] | Plasma level of individual SFN metabolite, preintervention, Mean (SE) [1] | AMACR expression in colon cancer Caco-2 cells [2] | AMACR mRNA levels in LNCaP cells [3] | Plasma level of individual SFN metabolite, change (post minus pre), Mean (SE) [4] | Plasma level of individual SFN metabolite, preintervention, Mean (SE) [4]
1 | C[S+]([O-])CCCCN=C=S (stereo not shown) [SFN, sulforaphane] | 0.0001 (0.0001) μM | 0.0001 (0.0001) μM | 0.00 (0.00) μM | significantly decrease AMACR expression | significantly downregulated | – | –
2 | C[S+]([O-])CCCCNC(=S)SCC(N)C(=O)NCC(=O)O (stereo not shown) [SFN-CG, SFN-cysteinylglycine] | – | – | – | – | – | 0.04 (0.01) μM | 0.00 (0.00) μM
3 | C[S+]([O-])CCCCNC(=S)SCC(N)C(=O)O (stereo not shown) [SFN-Cys, SFN-cysteine] | 0.02 (0.01) μM | 0.02 (0.01) μM | 0.00 (0.00) μM | – | – | – | –
4 | C[S+]([O-])CCCCNC(=S)SC[C@H](NC(=O)CC[C@H](N)C(=O)O)C(=O)NCC(=O)O (stereo partly shown) [SFN-GSH, SFN-glutathione] | 0.03 (0.01) μM | 0.03 (0.01) μM | 0.00 (0.00) μM | – | – | – | –
5 | CC(=O)N[C@@H](CSC(=S)NCCCC[S+](C)[O-])C(=O)O (stereo partly drawn) [SFN-NAC, SFN N-acetyl-L-cysteine] | 0.03 (0.01) μM | 0.03 (0.01) μM | 0.00 (0.00) μM | – | – | – | –
